Data from US12723063B2, “GIPR-agonist compounds” (Eli Lilly and Company, priority 2019, dated 2026).
*1 amine or outer side, *2 acyl side, *3 side chain or, on linkers, in order; H or OH if unused. Where a SMILES comes first, the peptide text is derived from it. Side-chain parts run from the residue outwards. [ ]: non-standard residue; d: D form. The star is where a group is joined. C20 diacid = O=C(O)CCCCCCCCCCCCCCCCCCC(=O)*; C18 diacid = O=C(O)CCCCCCCCCCCCCCCCC(=O)*; αMePhe(2-F) = C[C@](N)(Cc1ccccc1F)C(=O)O; γGlu = O=C(O)[C@H](CCC(=O)[*:2])N[*:1]; 4Pal = N[C@@H](Cc1ccncc1)C(=O)O; αMeL = CC(C)C[C@](C)(N)C(=O)O; Orn = NCCC[C@H](N)C(=O)O; AEEA = NCCOCCOCC(=O)O; Aib = CC(C)(N)C(=O)O

Key:
[1] = target: T1, human glucagon receptor (GcgR) (Homo sapiens, UniProt P47871); test: cAMP functional assay (HTRF) in HEK293 cells in presence of 0.1% casein; format: cell-based; details: HEK293 cells expressing human GcgR, geometric mean, read-out: hGcgR cAMP Rel EC50 nM (SEM, n)
T1 construct: expressed in transfected cells; host or cells: HEK293
T1 sequence (P47871 26-477): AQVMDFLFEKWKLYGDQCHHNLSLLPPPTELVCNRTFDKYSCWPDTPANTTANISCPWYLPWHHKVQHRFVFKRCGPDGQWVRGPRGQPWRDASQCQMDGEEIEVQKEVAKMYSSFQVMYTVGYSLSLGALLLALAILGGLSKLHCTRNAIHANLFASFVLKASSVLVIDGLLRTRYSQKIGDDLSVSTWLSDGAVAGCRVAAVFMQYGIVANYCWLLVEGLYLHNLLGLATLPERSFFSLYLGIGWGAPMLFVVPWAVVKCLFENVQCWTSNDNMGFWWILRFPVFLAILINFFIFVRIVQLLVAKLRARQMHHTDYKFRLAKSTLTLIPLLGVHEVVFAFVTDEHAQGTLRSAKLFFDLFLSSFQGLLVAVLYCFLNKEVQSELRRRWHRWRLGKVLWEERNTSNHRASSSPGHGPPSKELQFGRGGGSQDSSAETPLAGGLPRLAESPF

[2] = target: T2, human glucose-dependent insulinotropic peptide receptor (GIPR) (Homo sapiens, UniProt P48546); test: as above; format: cell-based; details: HEK293 cells expressing human GIPR, geometric mean, read-out: hGIPR cAMP Rel EC50 nM (SEM, n)
T2 construct: expressed in transfected cells; host or cells: HEK293
T2 sequence (P48546 22-466): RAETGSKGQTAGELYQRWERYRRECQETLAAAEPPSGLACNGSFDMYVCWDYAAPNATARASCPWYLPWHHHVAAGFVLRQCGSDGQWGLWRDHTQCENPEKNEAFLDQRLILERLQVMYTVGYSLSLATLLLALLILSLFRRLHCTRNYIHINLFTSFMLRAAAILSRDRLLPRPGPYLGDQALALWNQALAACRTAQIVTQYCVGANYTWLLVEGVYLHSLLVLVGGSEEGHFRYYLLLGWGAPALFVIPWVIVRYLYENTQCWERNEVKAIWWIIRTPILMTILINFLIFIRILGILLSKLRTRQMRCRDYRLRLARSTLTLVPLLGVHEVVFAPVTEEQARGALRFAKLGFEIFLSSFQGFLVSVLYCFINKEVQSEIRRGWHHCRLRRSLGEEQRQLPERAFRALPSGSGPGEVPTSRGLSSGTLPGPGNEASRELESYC

In the case of `CC[C@H](C)[C@H](NC(=O)[C@H](CCCCN)NC(=O)[C@H](CC(=O)O)NC(=O)[C@H](CC(C)C)NC(=O)[C@](C)(CC(C)C)NC(=O)[C@@H](NC(=O)[C@H](CO)NC(=O)[C@H](Cc1ccc(O)cc1)NC(=O)[C@H](CC(=O)O)NC(=O)[C@H](CO)NC(=O)[C@@H](NC(=O)[C@H](Cc1ccccc1)NC(=O)[C@@H](NC(=O)CNC(=O)[C@H](CCC(=O)O)NC(=O)C(C)(C)NC(=O)[C@@H](N)Cc1ccc(O)cc1)[C@@H](C)O)[C@@H](C)CC)[C@@H](C)CC)C(=O)N[C@@H](Cc1c[nH]cn1)C(=O)N[C@@H](CCC(N)=O)C(=O)NC(C)(C)C(=O)N[C@@H](CC(=O)O)C(=O)N[C@@H](Cc1ccccc1)C(=O)N[C@H](C(=O)N[C@@H](CCC(=O)O)C(=O)N[C@@H](Cc1ccncc1)C(=O)N[C@@H](CCCCNC(=O)COCCOCCNC(=O)COCCOCCNC(=O)CC[C@H](NC(=O)CCCCCCCCCCCCCCCCC(=O)O)C(=O)O)C(=O)N[C@@H](CC(C)C)C(=O)N[C@@H](CCC(=O)O)C(=O)NCC(=O)NCC(=O)N1CCC[C@H]1C(=O)N[C@@H](CO)C(=O)N[C@@H](CO)C(=O)NCC(=O)N[C@@H](C)C(=O)N1CCC[C@H]1C(=O)N1CCC[C@H]1C(=O)N1CCC[C@H]1C(=O)N[C@@H](CO)C(N)=O)C(C)C` [Example 110] (H-Y[Aib]EGTFISDYSI[αMeL]LDKIHQ[Aib]DFVE[4Pal]K([AEEA-AEEA-γGlu-C18 diacid])LEGGPSSGAPPPS-NH2), the EC50 [1] is reported as over 5000 nM and the EC50 [2] is reported as 0.0071 nM.

Compound `CC[C@H](C)[C@H](NC(=O)[C@H](CCCN)NC(=O)[C@H](CC(=O)O)NC(=O)[C@H](CC(C)C)NC(=O)[C@](C)(CC(C)C)NC(=O)[C@@H](NC(=O)[C@H](CO)NC(=O)[C@H](Cc1ccc(O)cc1)NC(=O)[C@H](CC(=O)O)NC(=O)[C@H](CO)NC(=O)[C@@H](NC(=O)[C@H](Cc1ccccc1)NC(=O)[C@@H](NC(=O)CNC(=O)[C@H](CCC(=O)O)NC(=O)C(C)(C)NC(=O)[C@@H](N)Cc1ccc(O)cc1)[C@@H](C)O)[C@@H](C)CC)[C@@H](C)CC)C(=O)N[C@@H](Cc1c[nH]cn1)C(=O)N[C@@H](CCC(N)=O)C(=O)NC(C)(C)C(=O)N[C@@H](CC(=O)O)C(=O)N[C@@H](Cc1ccccc1)C(=O)N[C@H](C(=O)N[C@@H](CCC(=O)O)C(=O)N[C@@H](Cc1ccncc1)C(=O)N[C@@H](CCCCNC(=O)COCCOCCNC(=O)COCCOCCNC(=O)CC[C@H](NC(=O)CCCCCCCCCCCCCCCCC(=O)O)C(=O)O)C(=O)N[C@@H](CC(C)C)C(=O)N[C@@H](CCC(=O)O)C(=O)NCC(=O)NCC(=O)N1CCC[C@H]1C(=O)N[C@@H](CO)C(=O)N[C@@H](CO)C(=O)NCC(=O)N[C@@H](C)C(=O)N1CCC[C@H]1C(=O)N1CCC[C@H]1C(=O)N1CCC[C@H]1C(=O)N[C@@H](CO)C(N)=O)C(C)C` [Example 111] (H-Y[Aib]EGTFISDYSI[αMeL]LD[Orn]IHQ[Aib]DFVE[4Pal]K([AEEA-AEEA-γGlu-C18 diacid])LEGGPSSGAPPPS-NH2) has an EC50 [1] of over 5000 nM and an EC50 [2] of 0.0065 nM.

Compound `CC[C@H](C)[C@H](NC(=O)[C@H](CO)NC(=O)[C@H](Cc1ccc(O)cc1)NC(=O)[C@H](CC(=O)O)NC(=O)[C@H](CO)NC(=O)[C@@H](NC(=O)[C@](C)(Cc1ccccc1F)NC(=O)[C@@H](NC(=O)CNC(=O)[C@H](CCC(=O)O)NC(=O)C(C)(C)NC(=O)[C@@H](N)Cc1ccc(O)cc1)[C@@H](C)O)[C@@H](C)CC)C(=O)N[C@@H](C)C(=O)N[C@@H](CC(C)C)C(=O)N[C@@H](CC(=O)O)C(=O)N[C@@H](CCCCN)C(=O)N[C@H](C(=O)N[C@@H](Cc1c[nH]cn1)C(=O)N[C@@H](CCC(N)=O)C(=O)NC(C)(C)C(=O)N[C@@H](CC(=O)O)C(=O)N[C@@H](Cc1ccccc1)C(=O)N[C@H](C(=O)N[C@@H](CCC(=O)O)C(=O)N[C@@H](Cc1ccncc1)C(=O)N[C@@H](CCCCNC(=O)COCCOCCNC(=O)COCCOCCNC(=O)CC[C@H](NC(=O)CCCCCCCCCCCCCCCCCCC(=O)O)C(=O)O)C(=O)N[C@@H](CC(C)C)C(=O)N[C@@H](CCC(=O)O)C(=O)NCC(=O)NCC(=O)N1CCC[C@H]1C(=O)N[C@@H](CO)C(=O)N[C@@H](CO)C(=O)NCC(=O)N[C@@H](C)C(=O)N1CCC[C@H]1C(=O)N1CCC[C@H]1C(=O)N1CCC[C@H]1C(=O)N[C@@H](CO)C(N)=O)C(C)C)[C@@H](C)CC` [Example 112] (H-Y[Aib]EGT[αMePhe(2-F)]ISDYSIALDKIHQ[Aib]DFVE[4Pal]K([AEEA-AEEA-γGlu-C20 diacid])LEGGPSSGAPPPS-NH2) has an EC50 [1] of over 5000 nM and an EC50 [2] of 0.0041 nM.

With `CC[C@H](C)[C@H](NC(=O)[C@H](CO)NC(=O)[C@H](Cc1ccc(O)cc1)NC(=O)[C@H](CC(=O)O)NC(=O)[C@H](CO)NC(=O)[C@@H](NC(=O)[C@](C)(Cc1ccccc1F)NC(=O)[C@@H](NC(=O)CNC(=O)[C@H](CCC(=O)O)NC(=O)C(C)(C)NC(=O)[C@@H](N)Cc1ccc(O)cc1)[C@@H](C)O)[C@@H](C)CC)C(=O)N[C@@H](C)C(=O)N[C@@H](CC(C)C)C(=O)N[C@@H](CC(=O)O)C(=O)N[C@@H](CCCCN)C(=O)N[C@H](C(=O)N[C@@H](Cc1c[nH]cn1)C(=O)N[C@@H](CCC(N)=O)C(=O)NC(C)(C)C(=O)N[C@@H](CC(=O)O)C(=O)N[C@@H](Cc1ccccc1)C(=O)N[C@H](C(=O)N[C@@H](CCC(=O)O)C(=O)N[C@@H](Cc1ccncc1)C(=O)N[C@@H](CCCCNC(=O)COCCOCCNC(=O)COCCOCCNC(=O)CC[C@H](NC(=O)CCCCCCCCCCCCCCCCCCC(=O)O)C(=O)O)C(=O)N[C@@H](CC(C)C)C(=O)N[C@@H](CCC(=O)O)C(=O)N[C@@H](C)C(=O)NCC(=O)N1CCC[C@H]1C(=O)N[C@@H](CO)C(=O)N[C@@H](CO)C(=O)NCC(=O)N[C@@H](C)C(=O)N1CCC[C@H]1C(=O)N1CCC[C@H]1C(=O)N1CCC[C@H]1C(=O)N[C@@H](CO)C(N)=O)C(C)C)[C@@H](C)CC` [Example 113] (H-Y[Aib]EGT[αMePhe(2-F)]ISDYSIALDKIHQ[Aib]DFVE[4Pal]K([AEEA-AEEA-γGlu-C20 diacid])LEAGPSSGAPPPS-NH2) the EC50 [1] was over 5000 nM and the EC50 [2] was 0.0142 nM.

Compound `CC[C@H](C)[C@H](NC(=O)[C@H](CO)NC(=O)[C@H](Cc1ccc(O)cc1)NC(=O)[C@H](CC(=O)O)NC(=O)[C@H](CO)NC(=O)[C@@H](NC(=O)[C@](C)(Cc1ccccc1F)NC(=O)[C@@H](NC(=O)CNC(=O)[C@H](CCC(=O)O)NC(=O)C(C)(C)NC(=O)[C@@H](N)Cc1ccc(O)cc1)[C@@H](C)O)[C@@H](C)CC)C(=O)N[C@@H](C)C(=O)N[C@@H](CC(C)C)C(=O)N[C@@H](CC(=O)O)C(=O)N[C@@H](CCCCN)C(=O)N[C@H](C(=O)N[C@@H](Cc1c[nH]cn1)C(=O)N[C@@H](CCC(N)=O)C(=O)NC(C)(C)C(=O)N[C@@H](CC(=O)O)C(=O)N[C@@H](Cc1ccccc1)C(=O)N[C@H](C(=O)N[C@@H](CCC(=O)O)C(=O)N[C@@H](Cc1ccncc1)C(=O)N[C@@H](CCCCNC(=O)COCCOCCNC(=O)COCCOCCNC(=O)CC[C@H](NC(=O)CCCCCCCCCCCCCCCCCCC(=O)O)C(=O)O)C(=O)N[C@@H](CC(C)C)C(=O)N[C@@H](CCC(=O)O)C(=O)N[C@@H](CCC(N)=O)C(=O)NCC(=O)N1CCC[C@H]1C(=O)N[C@@H](CO)C(=O)N[C@@H](CO)C(=O)NCC(=O)N[C@@H](C)C(=O)N1CCC[C@H]1C(=O)N1CCC[C@H]1C(=O)N1CCC[C@H]1C(=O)N[C@@H](CO)C(N)=O)C(C)C)[C@@H](C)CC` [Example 114] (H-Y[Aib]EGT[αMePhe(2-F)]ISDYSIALDKIHQ[Aib]DFVE[4Pal]K([AEEA-AEEA-γGlu-C20 diacid])LEQGPSSGAPPPS-NH2) has an EC50 [1] of over 5000 nM and an EC50 [2] of 0.0075 nM.

`CC[C@H](C)[C@H](NC(=O)[C@H](CCCCN)NC(=O)[C@H](CC(=O)O)NC(=O)[C@H](CC(C)C)NC(=O)[C@](C)(CC(C)C)NC(=O)[C@@H](NC(=O)[C@H](CO)NC(=O)[C@H](Cc1ccc(O)cc1)NC(=O)[C@H](CC(=O)O)NC(=O)[C@H](CO)NC(=O)[C@@H](NC(=O)[C@H](Cc1ccccc1)NC(=O)[C@@H](NC(=O)CNC(=O)[C@H](CCC(=O)O)NC(=O)C(C)(C)NC(=O)[C@@H](N)Cc1ccc(O)cc1)[C@@H](C)O)[C@@H](C)CC)[C@@H](C)CC)C(=O)N[C@@H](CCCNC(=N)N)C(=O)N[C@@H](CCC(N)=O)C(=O)NC(C)(C)C(=O)N[C@@H](CC(=O)O)C(=O)N[C@@H](Cc1ccccc1)C(=O)N[C@H](C(=O)N[C@@H](CCC(=O)O)C(=O)N[C@@H](Cc1ccc(O)cc1)C(=O)N[C@@H](CCCCNC(=O)COCCOCCNC(=O)COCCOCCNC(=O)CC[C@H](NC(=O)CCCCCCCCCCCCCCCCCCC(=O)O)C(=O)O)C(=O)N[C@@H](CC(C)C)C(=O)N[C@@H](CCC(=O)O)C(=O)NCC(=O)NCC(=O)N1CCC[C@H]1C(=O)N[C@@H](CO)C(=O)N[C@@H](CO)C(=O)NCC(=O)N[C@@H](C)C(=O)N1CCC[C@H]1C(=O)N1CCC[C@H]1C(=O)N1CCC[C@H]1C(=O)N[C@@H](CO)C(N)=O)C(C)C` [Example 115] (H-Y[Aib]EGTFISDYSI[αMeL]LDKIRQ[Aib]DFVEYK([AEEA-AEEA-γGlu-C20 diacid])LEGGPSSGAPPPS-NH2) gave an EC50 [1] of over 5000 nM and an EC50 [2] of 0.0372 nM.
